Data on one molecule can be found in paper PMC6838110 (Nature Communications, 2019).

The structures appear in SMILES notation.

One assay relates to A549 xenografts. Put plainly: Xenograft efficacy study with fractionated IR. It counts as in vivo, mice. On the procedure: (§1) Immunocompromised SCID (C.B-17/IcrHan®Hsd-Prkdc^scid) or Hsd:Athymic Nude-Foxn1^nu female mice (Envigo) were used for tumour implantation. […] When dosed twice daily, the time between the morning and evening doses was 8 h. Targeted irradiation of 2 Gy was delivered over 2 min daily over the first 5 days of treatment. Liposomal doxorubicin (Doxoves) was diluted in physiological saline and intravenously dosed at 2.5 or 5 mg kg^−1 once per week. Olaparib was formulated in 10% DMSO/30% Kleptose and orally dosed at 100 mg kg^−1 once daily. […] Statistical significance was evaluated using a one-tailed t-test. All in vivo studies complied with all relevant ethical regulations for animal testing and research, followed AstraZeneca’s global bioethics policy and received ethical approval from the AstraZeneca ethical committee. HBCx-17 PDX study was carried out at XenTech, France in accordance with French regulatory legislation concerning the protection of laboratory animals. CTG-703, CTG-0828 and CTG-0149 PDX studies were carried out at Champions Oncology, Inc., USA in accordance to the guidelines of the Institutional Animal Care and Use Committee (IACUC) of Champions Oncology and the USA regulatory legislation. CDX and OV2022 PDX studies were conducted in the UK in accordance with UK Home Office legislation, the Animal Scientific Procedures Act 1986 and the Home Office project licences 70/8839, 70/8894 and P0EC1FFDF. […]
(§2) Tumours were measured (length x width) by bilateral Vernier calliper measurements and tumour volume calculated using Mousetrap software. Mice were randomized into […]
(§3) treatment groups when mean tumour volume reached ~0.2 cm 3. AZD7648 was formulated in 0.5% hydroxypropyl methylcellulose (HPMC)/0.1% Tween80 (HPMC/T) and orally dosed (4–100 mg/kg). When dosed twice daily (bid), the time between the morning and evening doses was 8 hours. Targeted irradiation of 2 Gy was delivered over 2 minutes daily over the first 5 days of treatment. Liposomal doxorubicin (Doxoves) was diluted in physiological saline and intravenously dosed at 2.5 or 5 mg/kg once per week. Olaparib was formulated in 10% DMSO/30% Kleptose and orally dosed at 100 mg/kg once daily.
(§4) HPMC/T. Tumour growth inhibition from start of treatment was assessed by co mparison of the mean change in tumour volume for the control and treated groups, using the Mousetrap application and represented as tumour growth inhibition (TGI). Statistical significance was evaluated using a one-tailed t-test. […]
(§5) was prepared using an appropriate dilution factor and compared against an 11-point standard calibration curve (1–10,000 nM) prepared in DMSO and spiked into bl ank plasma. […] Supernatant (50 µL) was then diluted in 300 µL water and analysed with ultra-performance liquid chromatography–tandem mass […]

In another assay the test system is NCI-H1299 xenografts. Put plainly: Xenograft efficacy study with fractionated IR. It counts as in vivo, mice. On the procedure: as §1, §2, §3, §4, §5
Assay [1] deals with UWB1.289 and DLD1 BRCA2 KO cells. In words: Live/Dead assay, AZD7648 monotherapy, BRCA1/BRCA2 isogenic pairs. It counts as cell-based. The settings on record: 7 days treatment. An excerpt:
by Live/Dead assay in A) UWB1.289 and UWB1.289 complemented with wild-type BRCA1 (UWB1.289 + BRCA1), DLD1 and DLD1 with the BRCA2 gene knocked out (DLD1 BRCA2 KO), and B) FaDu and A549 cells with the ATM gene knocked out (ATM KO) compared with their WT counterpart. Graphs represent percentage viable cells ± SD following 7 days’ treatment relative to DMSO vehicle-treated controls from one representative experiment of at least three independent experiments. Tables describe […]
and A549 ATM KO cells compared with their WT counterparts following 7 days’ treatment.
Mean pGI50 (–log [GI50]) ± SEM, geometric mean GI50, number of experimental repeats (n) and 95% confidence interval are described. C) Colony formation assay was performed on FaDu and A549 ATM KO and WT cells treated with increasing concentrations of olaparib. Graphs represent percentage surviving fraction of colonies ± SD following 10– 14 days’ treatment relative to DMSO vehicle-treated control from one representative experiment of three independent experiments. […] Mean pIC50
± SEM, geometric mean IC50, number of experimental repeats (n) and 95% confidence […]
8–14 days or with increasing concentrations of olaparib. Cell colonies were washed with […]
Mean surviving colonies were calculated from three technical replicates. […]
before survival fraction was calculated. […]
and quantified using the Acumen ® Cellista (TTP Labtech). […]

In the case of `Cc1cc2ncnn2cc1Nc1ncc2c(n1)n(C1CCOCC1)c(=O)n2C` [AZD7648], the “tumour growth inhibition (TGI)” value in the assay with A549 xenografts (AZD7648 100 mg kg−1 qd oral + IR 2 Gy for five consecutive days) stood at 90%. The “tumour response to single-agent treatment” value with A549 xenografts (AZD7648 100 mg kg−1 qd oral, single agent) is given as “insensitive”. Also, the tumour regression in the assay with NCI-H1299 xenografts (AZD7648 50 mg kg−1 qd × 21 days + IR 2 Gy qd × 5 days) came out at 55%; in the assay on NCI-H1299 xenografts (AZD7648 100 mg kg−1 qd × 21 days + IR 2 Gy qd × 5 days) it was 85%. For the same molecule, the “effect of loss of BRCA1 or BRCA2 on sensitivity to monotherapy” value in assay [1] is listed as “did not sensitize”.
